Data from ChEMBL document CHEMBL1201862, “PubChem BioAssay data set” (2004).
The source made the active and inactive calls.

Experiments:
[1] = alpha-synuclein stem-loop luciferase translation blockers – H4 neuroglioma cells, luminescence, confirmation (AID 1988); assay type: functional, cell-based
[2] = NIH-3T3 fibroblast cytotoxicity, dose response, cytotoxicity control, cell-based, fluorescence, Alamar Blue, secondary assay (AID 2327); assay type: functional;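 further: NIH-3T3 mouse fibroblasts cultured with fluconazole at 8 µg/mL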
[3] = viability of PTEN-deleted HCT116 cells – cell-based, HCT116 PTEN knockout, dose response (AID 1047); assay type: functional;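 further: HCT116 colon tumor cells with PTEN knocked out; cells exposed to compound for 60 hours before readout; potency for loss of cell viability measured by luminescence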
[4] = luciferase reporter signal suppression in cells – H4 neuroglioma cells, luminescence, dose response (AID 1990); assay type: functional, cell-based
[5] = target: T1, Ubiquitin-conjugating enzyme E2 N (Homo sapiens, UniProt P61088); assay type: functional
T1 sequence (P61088 whole entry): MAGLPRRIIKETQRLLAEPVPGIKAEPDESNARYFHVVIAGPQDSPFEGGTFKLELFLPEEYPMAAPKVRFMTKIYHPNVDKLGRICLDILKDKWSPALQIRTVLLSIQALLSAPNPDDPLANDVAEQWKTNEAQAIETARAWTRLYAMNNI

[6] = target: Transitional endoplasmic reticulum ATPase (Homo sapiens, UniProt P55072); assay: p97 ATPase inhibitors, dose response, biochemical (AID 1534)
[7] = Luminescence Cell-Based Dose Response HTS to Identify Inhibitors of 5'UTR Stem-Loop Driven Prion Protein mRNA Translation in H4 Neuroglioblastoma Cells. [Related pubchem assays: 1827 (Project Summary), 1813 (Primary HTS)]; assay type: functional
[8] = target: T2, Calpain-2 catalytic subunit (Sus scrofa, UniProt P43367); assay: m-calpain protease blockers, concentration series – biochemical, fluorogenic peptide substrate, dose response (AID 1420); assay type: functional
T2 sequence (P43367 whole entry): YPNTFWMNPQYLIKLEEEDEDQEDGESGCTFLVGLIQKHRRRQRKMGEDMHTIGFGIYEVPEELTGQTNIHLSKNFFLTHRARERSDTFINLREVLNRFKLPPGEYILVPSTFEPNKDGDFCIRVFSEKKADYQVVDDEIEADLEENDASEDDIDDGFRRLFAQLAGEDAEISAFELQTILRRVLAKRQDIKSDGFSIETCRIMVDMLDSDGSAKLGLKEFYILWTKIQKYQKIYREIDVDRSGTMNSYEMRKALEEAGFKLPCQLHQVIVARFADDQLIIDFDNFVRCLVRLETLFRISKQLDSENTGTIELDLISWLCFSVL

[9] = viability of HCT116 lacking mutant beta-catenin – cell-based, human colon tumor, dose response (AID 1045); assay type: functional;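 further: HCT116 colon tumor cells with beta catenin knocked out; cells exposed to compound for 60 hours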
[10] = target: T1, Ubiquitin-conjugating enzyme E2 N; assay type: functional; remark: listed apart in the source
[11] = target: T3, Bcl-2-related protein A1 (Mus musculus, UniProt Q07440); assay type: functional;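 further: confirmatory dose–response counterscreen on Bfl-1, used to check hits from a UBC13 polyubiquitin inhibitor campaign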
T3 sequence (Q07440 whole entry): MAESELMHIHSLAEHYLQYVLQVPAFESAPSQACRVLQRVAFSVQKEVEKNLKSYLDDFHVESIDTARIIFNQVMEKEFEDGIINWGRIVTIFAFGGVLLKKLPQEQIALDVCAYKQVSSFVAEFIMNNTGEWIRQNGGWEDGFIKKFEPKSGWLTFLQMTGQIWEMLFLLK

[12] = target: Transitional endoplasmic reticulum ATPase (Homo sapiens, UniProt P55072, C522A); assay: C522A mutant p97 ATPase inhibitors, dose response, counter-screen for p97 inhibitor project, biochemical, luminescence (AID 1544)
[13] = target: T4, Eukaryotic translation initiation factor 2-alpha kinase 3 (Homo sapiens, UniProt Q9NZJ5); assay: Dose response cell-based high-throughput screening assay to measure PERK inhibition. [Related pubchem assays: 1416 ]; assay type: functional
[14] = target: T4, Eukaryotic translation initiation factor 2-alpha kinase 3; assay: Counterscreen assay for PERK inhibitors: Dose response cell-based high throughput screening assay to measure inhibition of PERK at 6 hours. [Related pubchem assays: 1522, 1416 ]; assay type: functional
[15] = target: T5, Caspase-6 (Homo sapiens, UniProt P55212); assay: inhibition of CASP6 peptide cleavage – biochemical, VEID-R110 fluorescence, cherry-pick, dose response (AID 720632)
T5 sequence (P55212 whole entry): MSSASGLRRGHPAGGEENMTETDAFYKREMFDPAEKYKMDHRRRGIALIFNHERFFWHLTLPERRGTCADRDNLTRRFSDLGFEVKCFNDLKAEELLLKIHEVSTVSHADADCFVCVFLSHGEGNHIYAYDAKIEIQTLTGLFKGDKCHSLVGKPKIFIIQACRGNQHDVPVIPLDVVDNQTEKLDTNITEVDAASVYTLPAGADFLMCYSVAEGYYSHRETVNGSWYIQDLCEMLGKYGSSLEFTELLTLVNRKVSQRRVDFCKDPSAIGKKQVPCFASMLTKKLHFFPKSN

[16] = test system: Streptococcus; assay: GAS UMAA2166 growth inhibition – luminescence, BacTiterGlo, counter-screen for streptokinase expression inhibitor project, dose response (AID 1915); assay type: functional, organism-based;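 further: potency for reduction of bacterial viability or growth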
[17] = target: Multidrug resistance protein CDR1 (Candida albicans, UniProt P43071); assay: inhibition of Nile Red efflux via Candida CDR1 – S. cerevisiae AD1-8u, singleplex, Cherry Pick1 hits, dose response (AID 588606); assay type: functional
[18] = mRNA 3' processing disruption, beta-gal signal increase – luminescence, S. cerevisiae SKY197-pL101, dose response (AID 2525); assay type: functional, cell-based
[19] = Luminescence Cell-Based Dose Confirmation HTS to Identify Inhibitors of Polyadenylation.; assay type: functional
[20] = target: T6, Streptokinase A (Streptococcus pyogenes serotype M1, UniProt P10520); assay: viability-normalized secreted streptokinase activity reduction – plasminogen activation absorbance, OD405, dose response (AID 1914); assay type: functional, Streptococcus pyogenes M1 GAS;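 further: secreted streptokinase activity via plasminogen activation per viability signal from cell pellet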
T6 sequence (P10520 whole entry): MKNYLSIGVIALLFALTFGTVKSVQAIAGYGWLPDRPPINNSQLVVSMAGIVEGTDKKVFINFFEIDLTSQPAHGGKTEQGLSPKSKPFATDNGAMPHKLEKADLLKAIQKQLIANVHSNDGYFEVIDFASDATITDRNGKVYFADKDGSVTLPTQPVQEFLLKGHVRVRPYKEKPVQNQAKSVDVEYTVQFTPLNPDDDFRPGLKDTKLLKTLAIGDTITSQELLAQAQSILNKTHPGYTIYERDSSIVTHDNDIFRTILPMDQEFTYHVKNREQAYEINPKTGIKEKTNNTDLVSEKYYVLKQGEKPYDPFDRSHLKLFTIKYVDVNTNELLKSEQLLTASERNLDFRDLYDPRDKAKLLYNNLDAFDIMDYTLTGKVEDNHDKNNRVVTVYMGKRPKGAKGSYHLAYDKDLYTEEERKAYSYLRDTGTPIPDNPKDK

[21] = test system: Streptococcus sp. 'group A'; assay: Streptococcus pyogenes SK(-)GAS viability under kanamycin – luminescence, BacTiterGlo, confirmation, counter-screen for streptokinase expression inhibitor project, dose response (AID 1900); assay type: functional, organism-based
[22] = target: Lysosomal acid glucosylceramidase (Homo sapiens, UniProt P04062); assay: Dose response cell-based high throughput screening assay to identify enhancers of beta-glucosidase activity. [Related pubchem assays: 784 ]; assay type: functional
Sequence of Lysosomal acid glucosylceramidase (P04062 whole entry): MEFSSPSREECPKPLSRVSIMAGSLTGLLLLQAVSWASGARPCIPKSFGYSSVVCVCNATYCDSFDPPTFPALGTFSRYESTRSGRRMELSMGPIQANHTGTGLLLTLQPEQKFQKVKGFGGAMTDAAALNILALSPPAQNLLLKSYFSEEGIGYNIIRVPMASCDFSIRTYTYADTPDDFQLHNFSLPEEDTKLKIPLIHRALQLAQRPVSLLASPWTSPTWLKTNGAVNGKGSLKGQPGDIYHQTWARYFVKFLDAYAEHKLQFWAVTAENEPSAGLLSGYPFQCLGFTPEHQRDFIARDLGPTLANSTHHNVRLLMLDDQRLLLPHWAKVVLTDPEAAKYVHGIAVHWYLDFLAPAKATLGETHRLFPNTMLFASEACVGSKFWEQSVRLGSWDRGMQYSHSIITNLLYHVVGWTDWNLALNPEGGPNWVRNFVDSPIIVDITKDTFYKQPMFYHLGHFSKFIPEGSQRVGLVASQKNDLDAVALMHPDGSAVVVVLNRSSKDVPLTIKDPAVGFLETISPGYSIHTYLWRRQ

T4 sequence (Q9NZJ5 whole entry): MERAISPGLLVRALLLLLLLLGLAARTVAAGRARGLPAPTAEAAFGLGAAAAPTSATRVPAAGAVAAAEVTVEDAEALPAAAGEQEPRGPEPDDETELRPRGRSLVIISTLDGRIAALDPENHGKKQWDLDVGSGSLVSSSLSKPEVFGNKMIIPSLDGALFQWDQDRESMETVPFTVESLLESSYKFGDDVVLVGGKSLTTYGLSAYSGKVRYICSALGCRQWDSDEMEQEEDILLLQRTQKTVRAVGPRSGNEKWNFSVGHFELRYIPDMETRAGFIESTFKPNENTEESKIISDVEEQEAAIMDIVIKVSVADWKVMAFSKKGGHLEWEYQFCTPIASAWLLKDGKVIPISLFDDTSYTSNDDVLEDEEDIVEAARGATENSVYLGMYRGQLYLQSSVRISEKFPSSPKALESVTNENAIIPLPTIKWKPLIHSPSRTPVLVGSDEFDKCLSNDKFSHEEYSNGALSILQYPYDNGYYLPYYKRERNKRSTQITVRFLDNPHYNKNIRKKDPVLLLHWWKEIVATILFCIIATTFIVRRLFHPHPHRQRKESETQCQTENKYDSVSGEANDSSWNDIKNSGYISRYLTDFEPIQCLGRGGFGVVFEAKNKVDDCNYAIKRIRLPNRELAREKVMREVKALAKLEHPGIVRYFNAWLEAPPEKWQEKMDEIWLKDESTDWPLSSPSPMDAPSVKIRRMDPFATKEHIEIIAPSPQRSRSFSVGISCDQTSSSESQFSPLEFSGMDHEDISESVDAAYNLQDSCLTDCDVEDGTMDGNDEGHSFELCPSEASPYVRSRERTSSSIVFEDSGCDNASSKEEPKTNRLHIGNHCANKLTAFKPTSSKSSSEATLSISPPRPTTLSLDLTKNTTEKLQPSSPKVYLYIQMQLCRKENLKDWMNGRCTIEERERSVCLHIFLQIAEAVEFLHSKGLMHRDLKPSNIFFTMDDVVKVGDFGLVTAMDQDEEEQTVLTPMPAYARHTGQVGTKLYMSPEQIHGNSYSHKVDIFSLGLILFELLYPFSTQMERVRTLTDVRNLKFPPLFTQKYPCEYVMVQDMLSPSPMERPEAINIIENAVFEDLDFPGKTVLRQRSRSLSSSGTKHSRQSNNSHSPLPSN
Sequence of Transitional endoplasmic reticulum ATPase (Homo sapiens, UniProt P55072) (P55072 whole entry): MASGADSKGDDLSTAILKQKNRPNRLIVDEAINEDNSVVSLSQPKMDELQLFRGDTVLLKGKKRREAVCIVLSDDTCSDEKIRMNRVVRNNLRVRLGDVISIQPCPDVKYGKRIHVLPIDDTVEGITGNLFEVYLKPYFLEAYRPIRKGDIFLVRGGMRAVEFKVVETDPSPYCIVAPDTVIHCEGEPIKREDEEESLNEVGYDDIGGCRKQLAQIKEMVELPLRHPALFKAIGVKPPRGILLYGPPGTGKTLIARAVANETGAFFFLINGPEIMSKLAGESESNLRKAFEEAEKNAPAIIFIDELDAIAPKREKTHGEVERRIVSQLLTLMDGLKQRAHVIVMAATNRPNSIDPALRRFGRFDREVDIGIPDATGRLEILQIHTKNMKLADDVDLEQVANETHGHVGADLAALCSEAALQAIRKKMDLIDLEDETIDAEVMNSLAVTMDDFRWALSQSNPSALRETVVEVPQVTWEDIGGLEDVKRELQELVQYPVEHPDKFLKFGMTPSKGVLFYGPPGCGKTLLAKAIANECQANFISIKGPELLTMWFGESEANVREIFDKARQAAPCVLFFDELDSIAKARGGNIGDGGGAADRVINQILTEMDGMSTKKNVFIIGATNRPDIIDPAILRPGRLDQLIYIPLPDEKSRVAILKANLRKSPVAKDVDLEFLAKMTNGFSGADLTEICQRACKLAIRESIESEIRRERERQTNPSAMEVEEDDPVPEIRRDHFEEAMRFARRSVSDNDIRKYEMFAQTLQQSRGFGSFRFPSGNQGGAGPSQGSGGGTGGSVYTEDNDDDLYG
Sequence of Transitional endoplasmic reticulum ATPase (Homo sapiens, UniProt P55072, C522A) (P55072 2-806 C522A limits assumed): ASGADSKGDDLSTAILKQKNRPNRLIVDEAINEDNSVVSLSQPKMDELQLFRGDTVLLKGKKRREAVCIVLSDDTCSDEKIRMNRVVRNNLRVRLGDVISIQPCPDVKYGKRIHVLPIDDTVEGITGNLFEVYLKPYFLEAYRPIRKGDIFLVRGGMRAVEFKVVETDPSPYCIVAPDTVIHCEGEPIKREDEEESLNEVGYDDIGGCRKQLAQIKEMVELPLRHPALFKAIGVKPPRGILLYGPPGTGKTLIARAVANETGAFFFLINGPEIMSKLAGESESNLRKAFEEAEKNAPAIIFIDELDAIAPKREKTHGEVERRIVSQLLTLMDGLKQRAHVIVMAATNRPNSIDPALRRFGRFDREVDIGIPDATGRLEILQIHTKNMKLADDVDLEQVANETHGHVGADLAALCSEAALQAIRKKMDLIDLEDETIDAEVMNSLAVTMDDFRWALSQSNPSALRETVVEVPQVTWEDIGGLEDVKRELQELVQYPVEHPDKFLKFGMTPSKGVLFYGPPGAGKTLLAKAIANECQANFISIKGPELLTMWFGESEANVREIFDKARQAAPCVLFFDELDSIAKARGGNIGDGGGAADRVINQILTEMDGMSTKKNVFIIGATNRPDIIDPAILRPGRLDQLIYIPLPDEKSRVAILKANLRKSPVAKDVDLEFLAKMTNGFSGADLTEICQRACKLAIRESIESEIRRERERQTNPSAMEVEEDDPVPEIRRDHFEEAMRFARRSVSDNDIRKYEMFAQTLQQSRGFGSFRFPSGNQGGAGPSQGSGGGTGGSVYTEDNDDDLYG
Sequence of Multidrug resistance protein CDR1 (P43071 whole entry, looked up): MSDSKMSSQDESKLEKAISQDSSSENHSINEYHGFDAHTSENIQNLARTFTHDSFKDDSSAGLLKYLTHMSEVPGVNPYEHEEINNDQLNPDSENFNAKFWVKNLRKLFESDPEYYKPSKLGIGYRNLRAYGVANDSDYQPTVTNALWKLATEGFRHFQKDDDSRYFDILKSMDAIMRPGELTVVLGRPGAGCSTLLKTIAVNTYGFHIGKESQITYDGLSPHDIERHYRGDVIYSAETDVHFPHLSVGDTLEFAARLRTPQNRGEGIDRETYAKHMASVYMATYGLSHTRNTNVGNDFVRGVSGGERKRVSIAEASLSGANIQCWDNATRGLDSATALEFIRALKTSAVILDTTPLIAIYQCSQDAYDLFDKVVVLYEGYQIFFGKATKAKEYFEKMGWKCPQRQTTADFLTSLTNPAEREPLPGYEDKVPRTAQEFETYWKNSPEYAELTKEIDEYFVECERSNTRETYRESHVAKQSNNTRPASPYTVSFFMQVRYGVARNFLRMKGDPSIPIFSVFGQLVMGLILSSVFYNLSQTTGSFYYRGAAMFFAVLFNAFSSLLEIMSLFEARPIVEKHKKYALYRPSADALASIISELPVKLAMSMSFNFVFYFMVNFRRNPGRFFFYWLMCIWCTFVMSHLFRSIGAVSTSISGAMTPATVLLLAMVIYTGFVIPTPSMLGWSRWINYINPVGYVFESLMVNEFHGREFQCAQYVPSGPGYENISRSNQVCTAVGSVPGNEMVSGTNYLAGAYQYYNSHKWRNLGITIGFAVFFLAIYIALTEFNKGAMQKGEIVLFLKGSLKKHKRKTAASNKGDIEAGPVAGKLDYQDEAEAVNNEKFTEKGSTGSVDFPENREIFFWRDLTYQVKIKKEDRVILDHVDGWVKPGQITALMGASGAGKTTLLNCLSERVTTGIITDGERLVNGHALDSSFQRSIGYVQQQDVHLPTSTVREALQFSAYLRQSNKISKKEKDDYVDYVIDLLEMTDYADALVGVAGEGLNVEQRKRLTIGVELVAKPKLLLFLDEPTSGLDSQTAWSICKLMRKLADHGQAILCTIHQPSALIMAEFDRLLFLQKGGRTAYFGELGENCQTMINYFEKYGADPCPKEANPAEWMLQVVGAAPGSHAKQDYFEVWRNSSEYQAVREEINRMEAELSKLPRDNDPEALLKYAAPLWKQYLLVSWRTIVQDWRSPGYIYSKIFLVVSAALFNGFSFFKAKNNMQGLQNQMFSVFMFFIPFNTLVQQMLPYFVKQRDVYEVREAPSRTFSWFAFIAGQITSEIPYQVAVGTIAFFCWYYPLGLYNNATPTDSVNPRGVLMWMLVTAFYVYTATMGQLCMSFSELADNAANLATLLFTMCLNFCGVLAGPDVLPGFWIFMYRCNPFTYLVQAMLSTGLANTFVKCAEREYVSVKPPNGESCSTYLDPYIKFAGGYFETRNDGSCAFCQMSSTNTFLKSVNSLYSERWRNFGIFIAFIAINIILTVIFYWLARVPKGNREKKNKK

## N=C(N)N/N=C/c1ccc(OCc2ccc(Cl)cc2Cl)cc1
[1]
  EC50: > 120 µM (not active)
[2]
  EC50: 21 µM (inconclusive)
[3]
  EC50: 4.19 µM (active)
[4]
  EC50: > 120 µM (not active)
[5]
  IC50: 5.97 µM (active)
[6]
  IC50: > 50 µM (not active)
[7]
  EC50: > 120 µM (not active)
[8]
  IC50: 7.31 µM (not active)
[9]
  EC50: 4.16 µM (active)
[10]
  IC50: 7.26 µM (active)
[11]
  IC50: 13 µM (active)
[12]
  IC50: > 50 µM (not active)

## CCOC(=O)c1sc(NC(=O)C2C3C=CC(C3)C2C(=O)O)nc1C (configuration not stated)
[13]
  EC50: > 55.7 µM (not active)
[14]
  EC50: > 55.7 µM (not active)
[15]
  AC50: 11.1 µM (active)

## COc1cc(/C=C2/CC/C(=C/c3ccc(O)c(OC)c3)C2=O)ccc1O
[16]
  EC50: 76.7 µM (active)
[17]
  EC50: 27.1 µM (active)
[18]
  EC50: 173 µM (active)
[19]
  EC50: 6.57 µM (active)
[20]
  EC50: > 150 µM (not active)
[21]
  EC50: 15.8 µM (active)

## CC(=O)N1CCc2cc(Br)cc(S(=O)(=O)NCCN3CCCCC3C)c21 (configuration not stated)
[22]
  EC50: > 50 µM (not active)
